Measurements as given in patent publication US10463658B2, “Method of inhibiting FLT3 kinase” (AROG Pharmaceuticals, LLC, priority 2013, dated 2019).

What was measured:
[1] = target: T1, FLT3-ITD (Homo sapiens, UniProt P36888); experiment: Inhibition of FLT3-ITD phosphorylation by western blot in Molm-13 cells; assay type: cell-based; settings: tosylate salt, read-out: IC50, inhibition of phosphorylation of the FLT3-ITD receptor
T1 sequence (P36888 with tags, fused parts or gaps DUP594-600): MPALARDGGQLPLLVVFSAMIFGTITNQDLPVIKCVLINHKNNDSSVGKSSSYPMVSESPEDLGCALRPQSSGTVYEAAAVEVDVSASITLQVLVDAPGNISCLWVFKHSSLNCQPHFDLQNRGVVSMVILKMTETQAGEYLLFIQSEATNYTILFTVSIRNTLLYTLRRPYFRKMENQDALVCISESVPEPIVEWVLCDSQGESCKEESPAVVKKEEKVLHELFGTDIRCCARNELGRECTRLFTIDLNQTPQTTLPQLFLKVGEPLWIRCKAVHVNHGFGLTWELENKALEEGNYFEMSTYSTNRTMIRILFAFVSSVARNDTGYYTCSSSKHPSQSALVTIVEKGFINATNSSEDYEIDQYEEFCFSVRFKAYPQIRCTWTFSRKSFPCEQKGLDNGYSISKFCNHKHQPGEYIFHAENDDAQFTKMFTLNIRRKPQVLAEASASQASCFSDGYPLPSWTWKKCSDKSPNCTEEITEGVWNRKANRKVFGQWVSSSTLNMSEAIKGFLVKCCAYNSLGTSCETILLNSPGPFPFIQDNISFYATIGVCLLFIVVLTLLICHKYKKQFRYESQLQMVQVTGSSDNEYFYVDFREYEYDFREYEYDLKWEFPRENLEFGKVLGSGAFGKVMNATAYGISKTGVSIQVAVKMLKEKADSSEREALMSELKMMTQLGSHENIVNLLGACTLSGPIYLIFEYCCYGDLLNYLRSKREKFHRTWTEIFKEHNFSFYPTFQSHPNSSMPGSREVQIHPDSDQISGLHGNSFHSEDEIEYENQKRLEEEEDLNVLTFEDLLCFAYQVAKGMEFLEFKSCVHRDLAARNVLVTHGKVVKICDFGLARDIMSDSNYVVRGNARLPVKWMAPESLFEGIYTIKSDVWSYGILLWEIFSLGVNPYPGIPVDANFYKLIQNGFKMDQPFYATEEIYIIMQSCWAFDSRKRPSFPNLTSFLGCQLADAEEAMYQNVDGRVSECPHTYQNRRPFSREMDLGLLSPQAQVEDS
Experimental: (§1) The ability of the tosylate (toluenesulfonate) salt of CP-673,451 to inhibit phosphorylated FLT3 was determined using cell lines expressing FLT3-ITD, including Molm-13 (a human acute myeloid leukemia cell line) and BaF3 (bone marrow-derived pro-B-cell line) cells transduced to express FLT3. The effect was examined by western blot.

[2] = target: T2, FLT3 autoinhibited (Homo sapiens, UniProt P36888); experiment: KINOMEscan KdElect competitive binding assay, autoinhibited FLT3; settings: tosylate salt; average Kd; read-out: Binding Constant (Kd), FLT3 autoinhibited
T2 construct: host or cells: E. coli BL21-derived host (T7 phage) or HEK-293
T2 sequence (P36888 564-993 limits assumed): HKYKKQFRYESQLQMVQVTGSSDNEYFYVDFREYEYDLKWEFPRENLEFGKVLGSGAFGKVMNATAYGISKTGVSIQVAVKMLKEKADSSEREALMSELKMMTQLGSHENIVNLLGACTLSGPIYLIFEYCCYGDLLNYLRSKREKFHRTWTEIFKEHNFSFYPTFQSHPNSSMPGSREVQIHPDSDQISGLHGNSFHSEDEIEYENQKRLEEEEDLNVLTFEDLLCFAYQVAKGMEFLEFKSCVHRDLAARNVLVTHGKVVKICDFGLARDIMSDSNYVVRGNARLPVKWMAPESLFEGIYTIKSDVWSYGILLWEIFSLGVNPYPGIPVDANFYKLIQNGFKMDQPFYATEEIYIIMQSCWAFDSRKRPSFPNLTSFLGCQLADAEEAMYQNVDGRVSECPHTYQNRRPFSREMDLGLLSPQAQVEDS
Excerpt: Competitive binding assay.
The lysates were then centrifuged and filtered.

[3] = target: T3, FLT3 ITD (Homo sapiens, UniProt P36888); experiment: Inhibition of FLT3-ITD phosphorylation by western blot in BaF3 cells transduced to express FLT3; assay type: cell-based; settings: Ba/F3 FLT3-ITD cells, tosylate salt, read-out: IC50, inhibition of phosphorylation of the FLT3-ITD receptor
T3 sequence (P36888 1-993): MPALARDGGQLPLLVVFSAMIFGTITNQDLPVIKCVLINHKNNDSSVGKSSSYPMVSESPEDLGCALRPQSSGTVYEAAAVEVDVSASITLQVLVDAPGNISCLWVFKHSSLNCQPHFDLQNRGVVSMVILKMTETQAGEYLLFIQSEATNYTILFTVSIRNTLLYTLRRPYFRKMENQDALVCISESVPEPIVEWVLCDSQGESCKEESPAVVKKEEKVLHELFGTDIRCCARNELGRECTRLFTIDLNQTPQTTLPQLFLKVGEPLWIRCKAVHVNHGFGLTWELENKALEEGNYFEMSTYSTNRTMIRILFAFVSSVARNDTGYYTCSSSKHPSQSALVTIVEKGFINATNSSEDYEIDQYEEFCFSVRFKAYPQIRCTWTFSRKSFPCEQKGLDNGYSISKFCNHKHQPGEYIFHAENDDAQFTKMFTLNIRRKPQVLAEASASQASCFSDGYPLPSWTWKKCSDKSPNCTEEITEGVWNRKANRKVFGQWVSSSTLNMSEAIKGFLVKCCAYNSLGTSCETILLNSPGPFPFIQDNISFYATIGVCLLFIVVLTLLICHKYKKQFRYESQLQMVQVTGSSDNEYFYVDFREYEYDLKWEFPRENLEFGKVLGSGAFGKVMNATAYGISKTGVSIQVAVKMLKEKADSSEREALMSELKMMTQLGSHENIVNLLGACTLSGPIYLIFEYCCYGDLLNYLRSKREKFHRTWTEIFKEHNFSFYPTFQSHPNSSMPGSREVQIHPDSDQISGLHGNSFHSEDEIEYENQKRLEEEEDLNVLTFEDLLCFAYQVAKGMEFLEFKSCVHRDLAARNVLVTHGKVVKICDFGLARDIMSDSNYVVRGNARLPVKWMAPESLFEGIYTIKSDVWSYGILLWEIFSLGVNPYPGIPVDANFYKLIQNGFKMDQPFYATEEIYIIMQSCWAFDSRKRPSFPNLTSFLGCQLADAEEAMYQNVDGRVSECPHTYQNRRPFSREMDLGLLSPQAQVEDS
Experimental: as §1

In the case of `COCCOc1ccc2c(c1)ncn2-c1ccc2cccc(N3CCC(N)CC3)c2n1` [CP-673,451], the IC50 [1] is reported as 0.7 nM, the Kd [2] is reported as 18 nM and the IC50 [3] is reported as 5.1 nM.
